Columns and labels:
Format in all cases: in vivo
Stellaria media [1] = experiment: Test Example 1 upland field foliage treatment; conditions: Table 4, upland field foliage treatment, index 0-5
Outline: (§1)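 Scored 0–5 (0: under 10%, 5: 90% or more effect or phytotoxicity) on day 21 after treatment; plants sown in upland soil received a leaf-surface spray 14 days post-sowing of diluted wettable powder delivering 1 kg active ingredient/ha.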

Setaria viridis [2] = experiment: Test Example 1 upland field foliage treatment; conditions: Table 4, upland field foliage treatment, index 0-5
Outline: as §1

Digitaria adscendens [3] = experiment: Test Example 1 upland field foliage treatment; conditions: Table 4, upland field foliage treatment, index 0-5
Outline: as §1

Chenopodium album [4] = experiment: Test Example 1 upland field foliage treatment; conditions: Table 4, upland field foliage treatment, index 0-5
Outline: as §1

Rice (Oryza sativa) = experiment: Test Example 3 paddy field treatment, crop phytotoxicity; conditions: paddy field treatment, transplanted rice Koshihikari, wettable powder, active ingredient 1 kg per hectare, 21st day after the dropping, index 0-5
Outline: (§2)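 Scoring used a 0–5 scale of herbicidal effect or phytotoxicity, from <10% to ≥90%, taken 21 days after treatment. Treatment was 1 kg a.i./ha as diluted wettable powder dripped onto 4 cm-deep flooded pots sown with the weeds, 10 days after transplanting two-leaf Koshihikari rice.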

Stellaria media [5] = experiment: Test Example 2 upland soil treatment; conditions: Table 5, upland soil treatment, index 0-5
Outline: (§3)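 Pre-emergence soil treatment: seeds sown in upland soil in pots and covered with about 1 cm soil. Next day, a water-diluted wettable powder was sprayed evenly on the soil surface at 1 kg active ingredient per hectare. Weed control or crop injury was scored 0–5 (10% to ≥90% bands) 21 days later.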

Setaria viridis [6] = experiment: Test Example 2 upland soil treatment; conditions: Table 5, upland soil treatment, index 0-5
Outline: as §3

Digitaria adscendens [7] = experiment: Test Example 2 upland soil treatment; conditions: Table 5, upland soil treatment, index 0-5
Outline: as §3

Chenopodium album [8] = experiment: Test Example 2 upland soil treatment; conditions: Table 5, upland soil treatment, index 0-5
Outline: as §3

Echinochloa crusgalli = experiment: Test Example 3 paddy field treatment; conditions: paddy field treatment, wettable powder, active ingredient 1 kg per hectare, 21st day after the dropping, index 0-5
Outline: as §2

Monochoria vaginalis = experiment: Test Example 3 paddy field treatment; conditions: paddy field treatment, wettable powder, active ingredient 1 kg per hectare, 21st day after the dropping, index 0-5
Outline: as §2

Scirpus juncoides = experiment: Test Example 3 paddy field treatment; conditions: paddy field treatment, wettable powder, active ingredient 1 kg per hectare, 21st day after the dropping, index 0-5
Outline: as §2

Ammannia multiflora = experiment: Test Example 3 paddy field treatment; conditions: paddy field treatment, wettable powder, active ingredient 1 kg per hectare, 21st day after the dropping, index 0-5
Outline: as §2

soybean (Glycine max) [9] = experiment: Test Example 1 upland field foliage treatment, crop phytotoxicity; conditions: Table 4, upland field foliage treatment, index 0-5
Outline: as §1

[10] = test system: wheat (Triticum aestivum); experiment: as above; conditions: Table 4, upland field foliage treatment, index 0-5
Outline: as §1

soybean (Glycine max) [11] = experiment: Test Example 2 upland soil treatment, crop phytotoxicity; conditions: Table 5, upland soil treatment, index 0-5
Outline: as §3

[12] = test system: wheat (Triticum aestivum); experiment: as above; conditions: Table 5, upland soil treatment, index 0-5
Outline: as §3

Compound | Herbicidal activity SM: Stellaria media (Stellaria media [1]) | Herbicidal activity SV: Setaria viridis (Setaria viridis [2]) | Herbicidal activity DA: Digitaria adscendens (Digitaria adscendens [3]) | Herbicidal activity CA: Chenopodium album (Chenopodium album [4]) | Herbicidal activity OS (phytotoxicity to rice) (Rice (Oryza sativa)) | Herbicidal activity SM: Stellaria media (Stellaria media [5]) | Herbicidal activity SV: Setaria viridis (Setaria viridis [6]) | Herbicidal activity DA: Digitaria adscendens (Digitaria adscendens [7]) | Herbicidal activity CA: Chenopodium album (Chenopodium album [8]) | Herbicidal activity EC (Echinochloa crusgalli) | Herbicidal activity MV (Monochoria vaginalis) | Herbicidal activity SJ (Scirpus juncoides) | Herbicidal activity AM (Ammannia multiflora) | Herbicidal activity (phytotoxicity) GM: Soybean (Glycine max) (soybean (Glycine max) [9]) | Herbicidal activity (phytotoxicity) TA: Wheat (Triticum aestivum) [10] | Herbicidal activity (phytotoxicity) GM: Soybean (Glycine max) (soybean (Glycine max) [11]) | Herbicidal activity (phytotoxicity) TA: Wheat (Triticum aestivum) [12]
CON=C(Cn1cc(C)c(-c2ccccc2)n1)C(=O)NCC#N [Compound 33] | 4 (herbicidal effect of not less than 70% and less than 90%, or phytotoxicity of 70% or more and less than 90%) | 4 (herbicidal effect of not less than 70% and less than 90%, or phytotoxicity of 70% or more and less than 90%) | 5 (herbicidal effect of not less than 90%, or phytotoxicity of 90% or more) | 4 (herbicidal effect of not less than 70% and less than 90%, or phytotoxicity of 70% or more and less than 90%) | 0 (herbicidal effect of not less than 0% and less than 10%, or phytotoxicity of 0% or more and less than 10%) | 5 (herbicidal effect of not less than 90%, or phytotoxicity of 90% or more) | 4 (herbicidal effect of not less than 70% and less than 90%, or phytotoxicity of 70% or more and less than 90%) | 5 (herbicidal effect of not less than 90%, or phytotoxicity of 90% or more) | 5 (herbicidal effect of not less than 90%, or phytotoxicity of 90% or more) | 5 (herbicidal effect of not less than 90%, or phytotoxicity of 90% or more) | 5 (herbicidal effect of not less than 90%, or phytotoxicity of 90% or more) | 4 (herbicidal effect of not less than 70% and less than 90%, or phytotoxicity of 70% or more and less than 90%) | 5 (herbicidal effect of not less than 90%, or phytotoxicity of 90% or more) | 0 (herbicidal effect of not less than 0% and less than 10%, or phytotoxicity of 0% or more and less than 10%) | 0 (herbicidal effect of not less than 0% and less than 10%, or phytotoxicity of 0% or more and less than 10%) | 0 (herbicidal effect of not less than 0% and less than 10%, or phytotoxicity of 0% or more and less than 10%) | 0 (herbicidal effect of not less than 0% and less than 10%, or phytotoxicity of 0% or more and less than 10%)
CON=C(Cn1cc(C)c(-c2ccccc2)n1)C(=O)NCC(F)(F)F [Compound 34] | 4 (herbicidal effect of not less than 70% and less than 90%, or phytotoxicity of 70% or more and less than 90%) | 4 (herbicidal effect of not less than 70% and less than 90%, or phytotoxicity of 70% or more and less than 90%) | 5 (herbicidal effect of not less than 90%, or phytotoxicity of 90% or more) | 4 (herbicidal effect of not less than 70% and less than 90%, or phytotoxicity of 70% or more and less than 90%) | 1 (herbicidal effect of not less than 10% and less than 30%, or phytotoxicity of 10% or more and less than 30%) | 5 (herbicidal effect of not less than 90%, or phytotoxicity of 90% or more) | 4 (herbicidal effect of not less than 70% and less than 90%, or phytotoxicity of 70% or more and less than 90%) | 5 (herbicidal effect of not less than 90%, or phytotoxicity of 90% or more) | 5 (herbicidal effect of not less than 90%, or phytotoxicity of 90% or more) | 5 (herbicidal effect of not less than 90%, or phytotoxicity of 90% or more) | 5 (herbicidal effect of not less than 90%, or phytotoxicity of 90% or more) | 5 (herbicidal effect of not less than 90%, or phytotoxicity of 90% or more) | 5 (herbicidal effect of not less than 90%, or phytotoxicity of 90% or more) | 0 (herbicidal effect of not less than 0% and less than 10%, or phytotoxicity of 0% or more and less than 10%) | 0 (herbicidal effect of not less than 0% and less than 10%, or phytotoxicity of 0% or more and less than 10%) | 0 (herbicidal effect of not less than 0% and less than 10%, or phytotoxicity of 0% or more and less than 10%) | 0 (herbicidal effect of not less than 0% and less than 10%, or phytotoxicity of 0% or more and less than 10%)
CNC(=O)C(Cn1cc(C)c(-c2ccc(C)cc2)n1)=NOC [Compound 37] | 5 (herbicidal effect of not less than 90%, or phytotoxicity of 90% or more) | 5 (herbicidal effect of not less than 90%, or phytotoxicity of 90% or more) | 5 (herbicidal effect of not less than 90%, or phytotoxicity of 90% or more) | 5 (herbicidal effect of not less than 90%, or phytotoxicity of 90% or more) | 1 (herbicidal effect of not less than 10% and less than 30%, or phytotoxicity of 10% or more and less than 30%) | 5 (herbicidal effect of not less than 90%, or phytotoxicity of 90% or more) | 5 (herbicidal effect of not less than 90%, or phytotoxicity of 90% or more) | 5 (herbicidal effect of not less than 90%, or phytotoxicity of 90% or more) | 5 (herbicidal effect of not less than 90%, or phytotoxicity of 90% or more) | 5 (herbicidal effect of not less than 90%, or phytotoxicity of 90% or more) | 5 (herbicidal effect of not less than 90%, or phytotoxicity of 90% or more) | 5 (herbicidal effect of not less than 90%, or phytotoxicity of 90% or more) | 5 (herbicidal effect of not less than 90%, or phytotoxicity of 90% or more) | 0 (herbicidal effect of not less than 0% and less than 10%, or phytotoxicity of 0% or more and less than 10%) | 0 (herbicidal effect of not less than 0% and less than 10%, or phytotoxicity of 0% or more and less than 10%) | 0 (herbicidal effect of not less than 0% and less than 10%, or phytotoxicity of 0% or more and less than 10%) | 0 (herbicidal effect of not less than 0% and less than 10%, or phytotoxicity of 0% or more and less than 10%)

— patent US7192906B2, “Substituted pyrazole derivatives, production process thereof, and herbicide compositions containing the derivatives” (SDS Biotech K.K., priority 2001, dated 2007)
